From patent publication US20100173832A1, “ANTICANCEROUS POLYMERIC AGENTS” (TECHNION RESEARCH & DEVELOPMENT FOUNDATION LTD., priority 2007, published 2010) come the findings set out here.

Non-standard residues stand in square brackets, D forms with d. Residues, ends and D or L forms follow the SMILES beside them. *: point of attachment. Lauroyl = CCCCCCCCCCCC(=O)*; Aoc = NCCCCCCCC(=O)O Where only a bound is given, the exact number is not on record here.

The nature of the data set: XTT cell viability assay, non-cancerous cardiac fibroblasts (CF). The class given is cell-based, rat. The note with it: primary cardiac fibroblasts (CF); primary non-cancerous rat cardiac fibroblasts, XTT assay; read-out: CF lethal concentration. An excerpt: Primary non-cancerous rat cardiac fibroblasts (CF);
As a routine cancer cell killing assay for assessment of antitumor activity, 2,3-bis(2-methoxy-4-nitro-5-sulfophenyl)-2H-tetrazolium-5-carboxanilide inner salt (XTT) reduction assay was used, utilizing a commercial kit such as, for example, Cell Proliferation XTT Kit, Cat. No. 20-300-1000, Biological Industries Ltd., Kibbutz Beit Haemek, Israel. XTT is a tetrazolium salt which is cleaved to formazan colored compounds by the mitochondrial dehydrogenase enzymes indicating proper mitochondrial activity in intact cells.
Thereafter, a series of increasing concentrations of the polymers were added. After another 24 hours of incubation, XTT reaction solution was added (50 μl of XTT per 100 μl of cell culture medium). The optical density of the cells was measured at 450 nm by ELISA plate reader after 2-4 hours XTT incubation. Cell viability was determined relative to a control having no polymer added thereto.
“Rat primary cardiac fibroblast CF” represents the lethal concentration in μM as measured against CF cell line, measured as described hereinabove in the cell proliferation XTT assay (column 8 in Table 3);
(In general: Tetrazolium assays rely on reduction of a dye to a coloured formazan, in cell work by metabolically active cells.)
Regarding `CCCCCCCCCCCC(=O)N[C@@H](CCCCN)C(=O)NCCCCCCCC(=O)N[C@@H](CCCCN)C(=O)N[C@@H](CCCCN)C(=O)NCCCCCCCC(=O)N[C@@H](CCCCN)C(N)=O` [C12(KNC8K)2NH2] (Lauroyl-K[Aoc]KK[Aoc]K-NH2), the CC50 at 24 h was less than 16 µM.
Under `NCCCCCCCCCCCC(=O)N[C@@H](CCCCN)C(=O)NCCCCCCCCCCCC(=O)N[C@@H](CCCCN)C(=O)NCCCCCCCCCCCC(=O)N[C@@H](CCCCN)C(=O)NCCCCCCCCCCCC(=O)N[C@@H](CCCCN)C(=O)NCCCCCCCCCCCC(=O)N[C@@H](CCCCN)C(=O)NCCCCCCCCCCCC(=O)N[C@@H](CCCCN)C(=O)NCCCCCCCCCCCC(=O)N[C@@H](CCCCN)C(N)=O` [(NC12K)7NH2] stands more than 16 µM; under `NCCCCCCCCCCCC(=O)N[C@@H](CCCCN)C(=O)NCCCCCCCCCCCC(=O)N[C@@H](CCCCN)C(=O)NCCCCCCCCCCCC(=O)N[C@@H](CCCCN)C(=O)NCCCCCCCCCCCC(=O)N[C@@H](CCCCN)C(=O)NCCCCCCCCCCCC(=O)N[C@@H](CCCCN)C(=O)NCCCCCCCCCCCC(=O)N[C@@H](CCCCN)C(N)=O` [(NC12K)6NH2], more than 16 µM.
The same measure for `NCCCCCCCCCCCC(=O)N[C@@H](CCCCN)C(=O)NCCCCCCCCCCCC(=O)N[C@@H](CCCCN)C(=O)O` [(NC12K)2]: more than 16 µM; for `NCCCC[C@H](NC(=O)CCCCCCCCCCCNC(=O)[C@H](CCCCN)NC(=O)CCCCCCCCCCCNC(=O)[C@H](CCCCN)NC(=O)CCCCCCCCCCCNC(=O)[C@H](CCCCN)NC(=O)CCCCCCCCCCCNC(=O)[C@@H](N)CCCCN)C(N)=O` [K(NC12K)4NH2]: 50 µM.
Under `CCCCCCCCCCCC(=O)N[C@@H](CCCCN)C(=O)NCCCCCCCC(=O)N[C@@H](CCCCN)C(N)=O` [C12(KNC8K)NH2] stands less than 16 µM.
On to `NCCCC[C@H](NC(=O)CCCCCCCCCCCNC(=O)[C@H](CCCCN)NC(=O)CCCCCCCCCCCNC(=O)[C@H](CCCCN)NC(=O)CCCCCCCCCCCNC(=O)[C@@H](N)CCCCN)C(N)=O` [K(NC12K)3NH2], for which the CC50 at 24 h was more than 16 µM.
As for `NCCCCCCCCCCCC(=O)N[C@@H](CCCCN)C(=O)NCCCCCCCCCCCC(=O)N[C@@H](CCCCN)C(=O)NCCCCCCCCCCCC(=O)N[C@@H](CCCCN)C(=O)O` [(NC12K)3], the CC50 at 24 h is more than 16 µM.
On to `NCCCCCCCCCCCC(=O)N[C@@H](CCCCN)C(=O)NCCCCCCCCCCCC(=O)N[C@@H](CCCCN)C(=O)NCCCCCCCCCCCC(=O)N[C@@H](CCCCN)C(N)=O` [(NC12K)3NH2], for which the CC50 at 24 h was more than 16 µM.
For `NCCCC[C@H](NC(=O)CCCCCCCCCCCNC(=O)[C@H](CCCCN)NC(=O)CCCCCCCCCCCNC(=O)[C@H](CCCCN)NC(=O)CCCCCCCCCCCNC(=O)[C@H](CCCCN)NC(=O)CCCCCCCCCCCNC(=O)[C@H](CCCCN)NC(=O)CCCCCCCCCCCNC(=O)[C@@H](N)CCCCN)C(N)=O` [K(NC12K)5NH2], the CC50 at 24 h was more than 16 µM.
Consider `NCCCC[C@H](NC(=O)CCCCCCCCCCCNC(=O)[C@H](CCCCN)NC(=O)CCCCCCCCCCCNC(=O)[C@@H](N)CCCCN)C(=O)O` [K(NC12K)2], for which the CC50 at 24 h is more than 16 µM.
Under `CCCCCCCCCCCC(=O)N[C@@H](CCCCN)C(=O)NCCCCCCCCCCCC(=O)N[C@@H](CCCCN)C(=O)O` [C12KNC12K] stands more than 16 µM.
Under `CCCCCCCCCCCC(=O)N[C@@H](CCCCN)C(=O)NCCCCCCCCCCCC(=O)N[C@@H](CCCCN)C(=O)NCCCCCCCCCCCC(=O)N[C@@H](CCCCN)C(=O)NCCCCCCCCCCCC(=O)N[C@@H](CCCCN)C(=O)O` [C12K(NC12K)3] stands more than 16 µM.
The same measure for `NCCCCCCCCCCCC(=O)N[C@@H](CCCCN)C(=O)NCCCCCCCCCCCC(=O)N[C@@H](CCCCN)C(=O)NCCCCCCCCCCCC(=O)N[C@@H](CCCCN)C(=O)NCCCCCCCCCCCC(=O)N[C@@H](CCCCN)C(=O)NCCCCCCCCCCCC(=O)N[C@@H](CCCCN)C(=O)NCCCCCCCCCCCC(=O)N[C@@H](CCCCN)C(=O)NCCCCCCCCCCCC(=O)N[C@@H](CCCCN)C(=O)NCCCCCCCCCCCC(=O)N[C@@H](CCCCN)C(N)=O` [(NC12K)8NH2]: more than 16 µM; for `CCCCCCCCCCCC(=O)N[C@@H](CCCCN)C(=O)NCCCCCCCCCCCC(=O)N[C@@H](CCCCN)C(=O)NCCCCCCCCCCCC(=O)N[C@@H](CCCCN)C(=O)O` [C12K(NC12K)2]: more than 16 µM; for `NCCCC[C@H](NC(=O)CCCCCCCCCCCNC(=O)[C@@H](N)CCCCN)C(=O)O` [KNC12K]: more than 16 µM.
With `NCCCC[C@H](NC(=O)CCCCCCCCCCCNC(=O)[C@H](CCCCN)NC(=O)CCCCCCCCCCCNC(=O)[C@H](CCCCN)NC(=O)CCCCCCCCCCCNC(=O)[C@H](CCCCN)NC(=O)CCCCCCCCCCCNC(=O)[C@H](CCCCN)NC(=O)CCCCCCCCCCCNC(=O)[C@H](CCCCN)NC(=O)CCCCCCCCCCCNC(=O)[C@H](CCCCN)NC(=O)CCCCCCCCCCCNC(=O)[C@@H](N)CCCCN)C(N)=O` [K(NC12K)7NH2], the CC50 at 24 h was more than 16 µM.
With `NCCCC[C@H](NC(=O)CCCCCCCCCCCNC(=O)[C@H](CCCCN)NC(=O)CCCCCCCCCCCNC(=O)[C@@H](N)CCCCN)C(N)=O` [K(NC12K)2NH2], the CC50 at 24 h was more than 16 µM.
For the compound `CCCCCCCCCCCC(=O)N[C@@H](CCCCN)C(=O)NCCCCCCCC(=O)N[C@@H](CCCCN)C(=O)N[C@@H](CCCCN)C(=O)NCCCCCCCC(=O)N[C@@H](CCCCN)C(=O)N[C@@H](CCCCN)C(=O)NCCCCCCCC(=O)N[C@@H](CCCCN)C(N)=O` [C12(KNC8K)3NH2] (Lauroyl-K[Aoc]KK[Aoc]KK[Aoc]K-NH2), the CC50 at 24 h is less than 16 µM.
The same measure for `NCCCC[C@H](NC(=O)CCCCCCCCCCCNC(=O)[C@@H](N)CCCCN)C(N)=O` [KNC12KNH2]: more than 16 µM; for `CCCCCCCCCCCC(=O)N[C@@H](CCCCN)C(=O)NCCCCCCCC(=O)N[C@@H](CCCCN)C(=O)N[C@@H](CCCCN)C(=O)NCCCCCCCC(=O)N[C@@H](CCCCN)C(=O)N[C@@H](CCCCN)C(=O)NCCCCCCCC(=O)N[C@@H](CCCCN)C(=O)N[C@@H](CCCCN)C(=O)NCCCCCCCC(=O)N[C@@H](CCCCN)C(N)=O` [C12(KNC8K)4NH2] (Lauroyl-K[Aoc]KK[Aoc]KK[Aoc]KK[Aoc]K-NH2): less than 16 µM; for `NCCCCCCCCCCCC(=O)N[C@@H](CCCCN)C(=O)NCCCCCCCCCCCC(=O)N[C@@H](CCCCN)C(N)=O` [(NC12K)2NH2]: more than 16 µM.
Under `NCCCCCCCCCCCC(=O)N[C@@H](CCCCN)C(=O)NCCCCCCCCCCCC(=O)N[C@@H](CCCCN)C(=O)NCCCCCCCCCCCC(=O)N[C@@H](CCCCN)C(=O)NCCCCCCCCCCCC(=O)N[C@@H](CCCCN)C(=O)NCCCCCCCCCCCC(=O)N[C@@H](CCCCN)C(N)=O` [(NC12K)5NH2] stands more than 16 µM; under `NCCCCCCCCCCCC(=O)N[C@@H](CCCCN)C(=O)NCCCCCCCCCCCC(=O)N[C@@H](CCCCN)C(=O)NCCCCCCCCCCCC(=O)N[C@@H](CCCCN)C(=O)NCCCCCCCCCCCC(=O)N[C@@H](CCCCN)C(=O)O` [(NC12K)4], more than 16 µM; under `CCCCCCCCCCCC(=O)N[C@@H](CCCCN)C(=O)NCCCCCCCCCCCC(=O)N[C@@H](CCCCN)C(N)=O` [C12KNC12KNH2], more than 16 µM.
Take `NCCCC[C@H](NC(=O)CCCCCCCCCCCNC(=O)[C@H](CCCCN)NC(=O)CCCCCCCCCCCNC(=O)[C@H](CCCCN)NC(=O)CCCCCCCCCCCNC(=O)[C@H](CCCCN)NC(=O)CCCCCCCCCCCNC(=O)[C@H](CCCCN)NC(=O)CCCCCCCCCCCNC(=O)[C@H](CCCCN)NC(=O)CCCCCCCCCCCNC(=O)[C@@H](N)CCCCN)C(N)=O` [K(NC12K)6NH2]: the CC50 at 24 h is more than 16 µM.
The same measure for `CCCCCCCCCCCC(=O)N[C@@H](CCCCN)C(=O)NCCCCCCCCCCCC(=O)N[C@@H](CCCCN)C(=O)NCCCCCCCCCCCC(=O)N[C@@H](CCCCN)C(N)=O` [C12K(NC12K)2NH2]: more than 16 µM; for `CCCCCCCCCCCC(=O)N[C@@H](CCCCN)C(=O)NCCCCCCCCCCCC(=O)N[C@@H](CCCCN)C(=O)NCCCCCCCCCCCC(=O)N[C@@H](CCCCN)C(=O)NCCCCCCCCCCCC(=O)N[C@@H](CCCCN)C(N)=O` [C12K(NC12K)3NH2]: more than 16 µM.
Consider `CCCCCCCCCCCC(=O)N[C@@H](CCCCN)C(=O)NCCCCCCCCCCCC(=O)N[C@@H](CCCCN)C(=O)NCCCCCCCCCCCC(=O)N[C@@H](CCCCN)C(=O)NCCCCCCCCCCCC(=O)N[C@@H](CCCCN)C(=O)NCCCCCCCCCCCC(=O)N[C@@H](CCCCN)C(N)=O` [C12K(NC12K)4NH2], for which the CC50 at 24 h is 37 ± 2.12 µM.
Turning to `NCCCC[C@H](NC(=O)CCCCCCCCCCCNC(=O)[C@H](CCCCN)NC(=O)CCCCCCCCCCCNC(=O)[C@H](CCCCN)NC(=O)CCCCCCCCCCCNC(=O)[C@@H](N)CCCCN)C(=O)O` [K(NC12K)3], the CC50 at 24 h is more than 16 µM.
